Common to all, as to assay: NCI-60 cell line screen, 48 h
In assay [1] the test system is SR leukemia.
Assay [2] concerns RPMI-8226 leukemia.
Assay [3] concerns HT29 colon.
Assay [4] has as its system DU-145 prostate.
The subject of assay [5] is TK-10 renal.
In assay [6] the test system is M14 melanoma.
Assay [7] relates to IGROV1 ovarian.
Assay [8] has as its system MCF7 breast.
For assay [9], the system named is OVCAR-4 ovarian.
Assay [10] has as its system SNB-19 CNS.

Where “and” joins values, the source holds several entries; their conditions need not be identical. Equal entries are not always repeated.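 Following 48 hours of exposure in 96-well plates, responses at five concentrations were used to interpolate endpoints linearly. GI50 = concentration required for 50% inhibition of growth. TGI marks complete inhibition of growth.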

In the case of `O=c1cc(-c2cccc3c2Sc2ccccc2S3)oc(N2CCOCC2)c1`, the GI50 in assay [1] was 4.21 µM; in assay [2], 9.83 µM; in assay [3], 8.82 µM; in assay [4], 8.19 µM; in [5], 12.2 µM; in [6], 11.1 µM. The GI50 in assay [7] is 4.08 µM; in [8] it was 5.94 µM; in assay [9] it was 11.2 µM; in assay [10], 13.9 µM. The TGI came to 27.3 µM in assay [1]; 43.4 µM in [2]; 23.5 µM in [3]; 20.5 µM in assay [4]; 25 µM in assay [5]; 24.3 µM in assay [6]. In addition, the TGI was determined as 17.7 µM in [7], 22.4 µM in [8], 31.9 µM in assay [9] and 33.6 µM in assay [10].

Regarding `Cc1csc(/C=C/C(=O)c2nnn(-c3ccnc4c(C(F)(F)F)cccc34)c2C)c1`, the GI50 in [1] was 23 µM; in [2], 23.6 µM; in assay [3], 27 µM; in assay [4] it was more than 100 µM; in assay [5], 87.1 µM; in [6], more than 100 µM. In addition, the GI50 was more than 100 µM in [7], more than 100 µM in [8] and 72.8 µM in [10]. Also, the TGI in assay [1], in assay [2], in [3], in [4], in assay [5] and in assay [6] was more than 100 µM throughout. In addition, the TGI in [7], in assay [8] and in [10] was more than 100 µM in each case.

On to `Clc1ccc(-c2c3c(nn2-c2ccccn2)CCc2ccccc2-3)cc1Cl`, for which the GI50 is 78.1 µM in assay [1]; 31.4 µM in assay [2]; 46.3 µM in assay [3]; more than 100 µM in assay [4]; 65.6 µM in assay [5]; 34 µM in assay [6]. Moreover, the GI50 in assay [7] is more than 100 µM; in [8], more than 100 µM; in [9] it was 39.8 µM; in assay [10], more than 100 µM. Moreover, the TGI in assay [1], in [2], in assay [3], in assay [4], in [5] and in assay [6] was more than 100 µM throughout. Moreover, the TGI in assay [7], in assay [8], in assay [9] and in assay [10] was more than 100 µM each time.

For the compound `CC(C)=CCC/C(C)=C/CC/C(C)=C/CSc1ccccc1C(=O)O`, the GI50 was 22.5 µM in assay [1]; 25.2 µM in [2]; 33.5 µM in [3]; 24.6 µM in assay [4]; 36.4 µM in assay [5]; 25.6 µM in assay [6]. In addition, the GI50 in assay [7] is 29.3 µM; in assay [8] it was 33.5 µM; in assay [9], 31.5 µM; in [10] it was 39.7 µM. The TGI in assay [1] is 59.1 µM; in assay [2] it was 73.1 µM and 81.4 µM; in assay [3] it was > 78.5 µM and 38.1 µM; in [4] it was 55.1 µM and 33.5 µM; in assay [5], > 92.3 µM and 99.1 µM; in assay [6], > 95 µM and 40.6 µM. Moreover, the TGI was 70.5 µM and 35.5 µM in [7]; 99.1 µM and 56 µM in assay [8]; more than 100 µM in [9]; > 100 µM and 41.1 µM in [10].

Take `CCOC(=O)c1cc2c(cc1Cl)SC(N(c1ccc(OC)cc1)S(=O)(=O)c1ccc(Cl)cc1)=NS2(=O)=O`: the GI50 in assay [1] is 24.8 µM; in [2], 31.3 µM; in assay [3], 29.4 µM; in [4] it was 24 µM; in assay [5], 38.4 µM; in assay [6] it was 38.7 µM. Moreover, the GI50 in assay [7] is 49.6 µM; in [8], 25.6 µM; in assay [9], 26.1 µM; in [10] it was 36.8 µM. The TGI is 98.6 µM in [1]; more than 100 µM in [2]; more than 100 µM in assay [3]; 79.9 µM in assay [4]; more than 100 µM in assay [5]; more than 100 µM in assay [6]. The TGI in [7] was more than 100 µM; in assay [8], 68.2 µM; in [9], more than 100 µM; in [10], more than 100 µM.

Regarding `NCCOCCOCCNc1nc(-c2ccccc2)nc(N2CCN(c3ccccn3)CC2)n1`, the GI50 in assay [1] is 1.62 µM; in assay [2], 13.5 µM; in [3], 4.55 µM; in [4] it was 15.2 µM; in assay [6], 2.16 µM; in [7], 18.2 µM. Also, the GI50 in [8] is 12.5 µM; in assay [9], 13.4 µM. Also, the TGI was 4.64 µM in assay [1]; 34.2 µM in assay [2]; 17.6 µM in [3]; 28.7 µM in assay [4]; 5.31 µM in assay [6]; 34.4 µM in assay [7]. Besides, the figures for the TGI in assay [8] and in assay [9] were 32.2 µM and 26.3 µM, respectively.

Consider `C=C1CCC2C3(C)COC(c4ccccc4)OC3CCC2(C)C1/C=C/C1=CCOC1=O` (stereo not drawn), for which the GI50 was 1.27 µM in assay [1]; 1.69 µM in assay [2]; 3.23 µM in assay [3]; 3.77 µM in assay [4]; 12.3 µM in assay [5]; 6.4 µM in assay [6]. For the same compound, the GI50 is 3.4 µM in assay [7], 1.96 µM in [8], 3.63 µM in assay [9] and 35.8 µM in assay [10]. Also, the TGI amounted to 4.06 µM in assay [1]; 5.69 µM in assay [2]; 10.7 µM in [3]; 12.8 µM in assay [4]; 34 µM in [5]; 36.7 µM in [6]. In addition, the TGI is 11.9 µM in assay [7], 7.59 µM in assay [8], 16.3 µM in assay [9] and more than 100 µM in assay [10].

On to `CC(=O)OC[C@@H](COC(=O)/C=C/c1ccc(O)cc1)OC1OC(CO)C(O)C(O)C1O` (stereo partly drawn), for which the TGI in assay [1], in assay [2], in assay [3], in assay [4], in [5] and in assay [6] was more than 100 µM throughout. Further, the TGI in assay [7], in assay [9] and in assay [10] was more than 100 µM in each case.
